Measured values reported in article PMC7566913, “Dual Gene Delivery Reagents From Antiproliferative Alkylphospholipids for Combined Antitumor Therapy” (Frontiers in Chemistry, 2020).

How the values were obtained:
[1] = Hydrolytic stability of the APL prodrugs monitored by 31P-NMR; format: physicochemical
Description: Aqueous formulation of the APL prodrugs produces nanosized lipid aggregates that most likely enter cells through the endocytosis pathway. To produce the expected intrinsic antineoplastic effect, APL-derived phosphotriesters need to be processed into the bioactive parent APLs. The hydrolysis of the prodrugs may be under the control of a chemical stimulus, e.g., a pH decrease as observed during the maturation of endosomes, or of degradation enzymes that massively enter the endosome compartment when continuing to lysosomes. To get some information on the transformation of pro-APLs into APLs, we monitored the hydrolysis of these compounds over time, at pH 7.4 and 4.5, conditions that mimick the extracellular milieu and the environment of the late endosome, respectively. This monitoring was realized using ^31P-NMR spectroscopy, according to a previously reported method (Pierrat et al., [2013b]). Whatever the compound investigated, only one single ^31P resonance did appear during the course of the experiments, corresponding to that of the parent APL. This confirmed that hydrolysis of the pro-APLs selectively occurred at the acetal center. […] As a general trend, hydrolysis of the pro-APLs was […] under neutral conditions (i.e., pH 7.4) than under acidic ones (i.e., pH 4.5). […] Besides, substitution of one hydrogen atom with a methyl group on the acetal bridge accelerated the rate of hydrolysis of the prodrugs. […] Indeed, in biological media, the enzyme-mediated hydrolysis of such compounds can proceed far quicker than “simple” chemical hydrolysis under pH control (Pierrat et al., [2012]). […]

[2] = Particle size and zeta potential of lipoplexes by DLS; format: physicochemical; details: lipoplexes with pCMV-Gluc, 25 °C, 5 % glucose, N/P 3, 1 molar equivalent of DOPE
Description: The capacity of the pro-APLs to interact electrostatically with nucleic acids and form lipoplexes was checked by standard agarose gel electrophoresis. […] The size (hydrodynamic diameter) and charge (zeta potential, ζ) of the lipoplexes prepared at an N/P ratio of 3 with one molar equivalent of dioleoyl-sn-glycero-3-phosphatidylethanolamine (DOPE), a lipid with fusogenic properties (Hui et al., [1996]; Zuhorn et al., [2005]), were investigated by DLS (Supplementary Table 1).
as measured by DLS. Lipoplexes were prepared at 25 °C, in 5 % glucose, at a N/P ratio of 3 and with
1 molar equivalent of DOPE.
(Gaillard et al., 2019). Data are the mean of three independent measurements (± SD).

[3] = CMC/CAC by pyrene fluorescent probe technique in ultrapure water; format: physicochemical; details: pyrene fluorescence
Experimental: The pro-APL molecules have been specifically engineered so they can be metabolized in situ under a biological stimulus to revert to the parent APL with antiproliferative activity. […] We thus aimed to determine the self-assembly properties of the APL prodrugs. […] Pyrene is a probe which fluorescence is sensitive to the polarity of the solubilizing medium. […] Fluorescence measurements were carried out in ultrapure water and data obtained for the various APLs and their prodrugs are shown in Table 2.
Pro-APLs Self-Assembly Properties
Starting from a lipid film, compounds were […]

sheep RBC = assay: Hemolytic activity, red blood cell leakage assay; details: 37°C
Experimental: To evaluate this hypothesis, the hemolytic activity of the APLs and pro-APLs was measured. Sheep RBC were incubated for 1 h with escalating doses of aqueous dispersion of the compounds at 37°C. At the end of the incubation period, hemoglobin leakage was determined spectrophotometrically.
Thus, in order to better characterize the hemolytic effect of the pro-APLs, the incubation period has been extended and release of hemoglobin was measured after 24 h.
Red blood cell (RBC) leakage assay was carried out according to a previously described procedure
(Evans et al, 2013). RBC were prepared from defibrinated sheep blood. Briefly, blood sample (5 mL) was centrifuged at 500 x g for 5 min. After removal of the yellow upper layer, an equal volume of

16HBE cells = assay: Cytotoxicity, MTT assay, 16HBE; format: cell-based, human; details: Homo sapiens, 24 h at 37°C
Experimental: The cells were exposed for a 24-h period to increasing concentration of the pro-APLs, ranging from 500 nM to 1 mM, and cell viability was assessed using the MTT colorimetric assay (Mosmann, [1983]). For the three cell lines, viability decreased in a dose-dependent manner in response to APLs and pro-APLs (Supplementary Figures 2–4). Using the best-fit regression curve method, the IC50 value (concentration that provokes 50% inhibition of the cell growth) was calculated for each compound (Table 4). The three cell lines responded to the compounds with varying sensitivities. […] This is attributed to enzyme-mediated hydrolysis of the pro-APL compounds in the complemented culture medium or in the intracellular compartment, competing with pure pH-controlled chemical hydrolysis. According to its structure, a pro-APL may or not be a substrate for specific lipases and, thus, may or not be hydrolyzed into the parent cytotoxic compound. […]
At confluency, cells were released […]
Cells were seeded into 96-well plates (Becton-Dickinson) at the required density (vide supra) in 100 µL of serum containing culture medium. […]
Mitochondrial activity measurements (MTT assay) was used to assess cytotoxicity of the compounds.
Lipid samples were prepared from a lipid film (3.6 µmol of compound evaporated from an ethanolic solution) hydrated with aqueous glucose 5 % and vigorously vortexed for 20 s before serial dilution in aqueous glucose 5 %. For addition of lipid samples to cell culture, part of the culture medium in the culture plates prepared the day before (25 µL) was removed and replaced by lipid samples (25 µL). Negative control was obtained by adding glucose 5 % to the cells instead of lipoplexes.
After a 24-h incubation period at 37 °C, culture supernatant was removed, cells were carefully washed with PBS and MTT (100 µL, 0.5 mg/mL) in complete culture medium was added. After a 1-h incubation period at 37 °C, the MTT sol ution was removed and DMSO (100 µL) was added to lyse cells and dissolve reduced MTT. Intensity of MTT reduction was then evaluated by measuring absorbance at 492 nm. Viability of cells treated with lipids or lipoplexes was expressed as the percentage of the absorbance measured in untreated cells. Value for each sample is the mean of triplicate determinations (± SD). IC50 values were determined within the 95 % confidence interval using nonlinear regression analysis with the GraphPad Prism software (GraphPad Software, San […]
All data are representative of a triplicate determination and are presented as the mean ± SD.
Statistical significance between treatments was assessed by one-way analysis of variance (ANOVA) followed by the Dunnett multiple comparison test, using the Kaleidagraph 4.5 software (Synergy Software, Reading, PA, USA). Data were considered as statistically significant for p value less than

CCCCCCCCCCCCCCCCCCOP(=O)(OCOC(=O)CCCCCCCCCCC)OC1CC[N+](C)(C)CC1.[Cl-] (stereo not shown) [PE12, 4-((((Dodecanoyloxy)methoxy)(octadecyloxy)phosphoryl)oxy)-1,1-dimethylpiperidin-1-ium chloride]
H120 (hydrolysis rate after a 120-h incubation period) ([1]; pH 4.5): 2%
H120 (hydrolysis rate after a 120-h incubation period) ([1]; pH 7.4): 16%
Particle size of lipoplexes [2]: 330 ± 76 nm
CMC (APLs) / CAC (pro-APLs) [3]: 2.9 ± 1.0 µM
HA200 (hemolytic activity at 200 μM) (sheep RBC; 1 h): 7.1 ± 0.9%
HA200 (hemolytic activity at 200 μM) (sheep RBC; 24 h): 20.6 ± 5.9%
IC50 (16HBE cells): 231 ± 70 µM
